From paper PMC11354392, “Molecular Characteristics of the Malate Dehydrogenase (MDH) Gene Family in Spirometra mansoni (Cestoda: Diphyllobothriidea)” (International Journal of Molecular Sciences, 2024) come the findings set out here.

The subject of assay [1] is T1, rSmMDH1.
T1 construct: gene SmMDH1
As to the kind of experiment: absorbance […] nm, Lineweaver-Burk. The assay is classed as biochemical, Spirometra mansoni. The note with it: apparent.

Assay [2] has as its target T1, rSmMDH1. As to the kind of experiment: absorbance […] nm, Lineweaver-Burk secondary plot of […]/Vmax. Type of assay: biochemical, Spirometra mansoni. The note with it: forward reaction (oxaloacetate reduction, NADH); 100 mM Tris-HCl pH 7.5, 37 °C; reversible, binds enzyme-substrate complex.

For `O=C(O)CC(=O)C(=O)O` [oxaloacetic acid], the Km in assay [1] (forward reaction, NADH co-substrate, 100 mM Tris-HCl pH 7.5, 37 °C, tested 1-10 mM) stood at 63500 µM.
Take `NC(=O)C1=CN([C@@H]2O[C@H](COP(=O)(O)OP(=O)(O)OC[C@H]3O[C@@H](n4cnc5c(N)ncnc54)[C@H](O)[C@@H]3O)[C@@H](O)[C@H]2O)C=CC1` [NADH]: the Km in assay [1] (forward reaction, oxaloacetate co-substrate, 100 mM Tris-HCl pH 7.5, 37 °C) turned out to be 1750 µM.
As for `O=C(O)C[C@H](O)C(=O)O` [malic acid], the Km in assay [1] (reverse reaction, NAD co-substrate, 100 mM Tris-HCl pH 8.6, 37 °C) was determined as 1190 µM.
In turn, `NC(=S)c1cccnc1` [thionicotinamide] registered a Ki in assay [2] of 144 µM.
Consider `NC(=O)c1ccc[n+]([C@@H]2O[C@H](COP(=O)(O)OP(=O)(O)OC[C@H]3O[C@@H](n4cnc5c(N)ncnc54)[C@H](O)[C@@H]3O)[C@@H](O)[C@H]2O)c1` [NAD], for which the Km in assay [1] (reverse reaction, malic acid co-substrate (methods print lactate), 100 mM Tris-HCl pH 8.6, 37 °C) was 1950 µM.
